Consider six substances from patent US6340783B1, “Rodent models of human amyloidoses” (University of Washington, priority 1992, dated 2002).

Test [1] deals with T1, Beta-Amyloid Protein (1-28) (Homo sapiens, UniProt P05067).
T1 construct: residues 1-28 of BAP or residues 597-624 of BAPP; purchased Bachem Inc., Torrance, Calif; host or cells: synthetic peptide
The test can be described thus: Competitive inhibition of 125I-labeled HSPG binding to BAP (1-28) affinity column. The protocol:
^125I-labeled HSPGs in the presence of increasing concentrations of unlabeled GAGs, or large low density HSPG (from EHS sarcoma) were applied to an Affi-gel 10 column containing BAP (residues 1-28). After nonbound PGs were eluted from the column using TBS+0.1% TX-100, bound PGs were eluted with a step gradient using 15 ml of 1M MgCl2 in TBS+0.1% TX-100, followed by 15 ml of 4M MgCl2 in TBS+0.1% TX-100, and then 10 ml of 8M urea buffer containing 3M NaCl. […] Bars indicate standard error of the mean.
In order to test the specificity of HSPG binding to BAP (1-28), competitive inhibition experiments were also performed. 125-I labeled HSPGs (100,000-200,000 dpm) were mixed with (a) HSPG from EHS sarcoma (Mr approximately 700,000) (Kato et al., 1988) (gift of Dr. Koji Kimata, Aichi, Japan), (b) heparin from porcine intestinal mucosa (Mr˜11,000; Sigma, St. Louis, Mo.), (c) chondroitin-6-sulfate from shark cartilage (Mr˜59,000; Sigma, St. Louis, Mo.), or (d) […] dextran sulfate (Mr˜110,000; Pharmacia Fine Chemicals, Uppsala, Sweden). The samples were incubated on a rotator for 2 hours at room temperature and then applied to the BAP (1-28) column. Columns were run and eluted with step gradients (1 to 4 M MgCl2) as described above.
Purified iodinated HSPGs were combined with various concentrations of unlabeled competing ligands and applied to a BAP (1-28) affinity column (FIG. 10).

The target in a further test is T2, BAP (residues 1-28) (Homo sapiens, UniProt P05067).
T2 construct: residues 1-28 of BAP or residues 597-624 of BAPP; purchased Bachem Inc., Torrance, Calif; host or cells: synthetic peptide
Briefly: Affinity column chromatography of labeled proteoglycans on BAP (1-28) Affi-gel 10 column. Type of test: binding. Conditions: after heparitinase/heparinase digestion. The protocol: Approximately 500,000 dpm of ^35S-sulfate labeled PGs isolated from the culture media of ECs were applied to Affi-gel 10 affinity columns containing approximately 0.45 mg of 1) residues 1-28 of BAP, 2) residues 410-429, a region of BAPP present in the extracellular domain, or 3) bovine serum albumin. The labeled PGs were left on the column for 1 hour, after which non-bound radiolabelled PGs were eluted with 25 ml (50 0.5 ml fractions) of TBS+0.1% TX-100 and collected on a fraction collector. Bound PGs were then eluted from the column with 15 mls of 4M MgCl2 in TBS+0.1% TX-100.
0.5 mg or 1.0 mg of ligands consisting of 1) BAP (1-28) (Bachem Inc., Torrance, Calif.), 2) a peptide corresponding to residues 410-429 of the BAPP (gift of Dr. Dennis Selkoe, Boston, U.S.A.) or 3) bovine serum albumin (BSA fraction V, Boehringer, Mannheim Biochemical) were dissolved initially in 400 μl of double distilled water to which was added an equal volume of 0.2 M HEPES buffer (pH 7.5) containing 160 mM calcium chloride. The ligand solutions were added to 0.8-1.0 ml of Affi-gel 10 (Biorad, Richmond, Calif.) and coupling was allowed to proceed for 4 hours at 4° C., after which 1/10 volume of IM ethanolamine (pH 8.0) was added and incubation continued for an additional 1-2 hours to block remaining unreacted ester groups. Gel coupled ligand was then transferred to Biorad Econo-columns and washed with TBS in 0.1% Triton-X 100. To assess the amount of bound ligand, soluble (nonbound) protein remaining in the wash buffer was assayed. The affinity columns coupled approximately 90% of ligand initially applied (i.e. 0.45 mg or 0.90 mg).
^35S-sulfate labeled PGs isolated from the culture media (360,000 dpm) of ECs and SMCs were applied to Affi-gel 10 columns containing 1) BAP (residues 1-28), 2) BAPP (residues 410-429) or 3) Bovine serum albumin. The labeled PGs were allowed to interact with the affinity gel for 1 hour (preliminary experiments indicated maximum binding efficiency at 1 hour) and non-bound radiolabelled PGs were eluted with 25 ml of TBS+0.1% Triton X-100 (TBS-TX 100). Bound PGs were eluted with either a single-step gradient using 15 mls of 4M MgCl2 in TBS-TX 100 or a linear gradient of 0 to 4M MgCl2 in TBS-TX 100. In some experiments, columns were further eluted with 15 ml of 8M urea in 50 mM Tris-HCl (pH 7.5), with 0.5% Triton X-100 and 3M NaCl. The radioactivity per fraction was determined by scintillation counting. Most experiments were repeated a minimum of three times. Recoveries of applied radioactivity from the affinity columns ranged from 80-95%.

In the next test the target is fibronectin (Homo sapiens, UniProt P02751). Conditions: via the core protein; cited from earlier work.
The test system of test [2] is HSPGs in AA amyloidotic mouse spleen. The test can be described thus: In situ binding of BAP (1-28) to AA amyloidotic tissue sections. From the text:
Six micron sections of paraffin-embedded AA amyloidotic spleen and liver (gift of Dr. Robert Kisilevsky, Kingston, Canada) were used for the in situ binding studies. AA amyloid was induced in CBA/J female mice (6-8 weeks old) using amyloid enhancing factor and silver nitrate, as previously described (Axelrad et al., 1982; Snow and Kisilevsky, 1985).
Immunostaining of tissue sections was accomplished using the avidin-biotin-immunoperoxidase method, employing the appropriate biotin-labeled secondary antibodies, followed by incubation with avidin-conjugated horseradish peroxidase complex (Vector Labs, Burlingame, Calif.). Peroxidase activity was produced by treatment with 3,3-diaminobenzidine as previously described (Snow et al., 1988a). For immunocytochemical staining, the primary antibody was used initially through a series of dilutions to obtain the best specificity with the least background staining. Only results using the optimal dilutions of primary antibody are reported.
Paraffin sections of mouse AA amyloidotic liver or spleen (obtained 4 days after initial AEF+ silver nitrate induction) were treated overnight at 4° C. with a 0.3 mg/ml or 0.5 mg/ml solution of a peptide corresponding to the extracellular domain of BAP (residues 1-28 of BAP or residues 597-624 of BAPP) (Bachem Inc., Torrance, Calif.) in Tris-buffered saline (TBS). After 18 hours, non-bound BAP was removed by extensive washing in 4 changes of TBS. Bound-BAP was then detected by immunostaining tissue sections with either of two BAP polyclonal antibodies as described above. […] These treatments included: 1) 0.50 units/ml of chondroitin ABC lyase (Seikagaku Kogyo Co. Ltd., through ICN Biomedicals) in 0.1 M enriched Tris-acetate buffer (pH 8.0) at 37° C. for 6 hours (Saitoh et al., 1968), 2) a solution of 20% nitrous acid: 33% acetic acid (1:1, volume/volume) incubated at room temperature for 6 hours (Snow et al., 1987) and 3) 10 units/ml of heparinase I and heparitinase I (Sigma, St. Louis, Mo.) in 0.20 M Tris-HCl buffer (pH 7.0) with 20 mM calcium acetate added, at 37° C. for 6 hours. […]

For test [3], the system named is β/A4 amyloid deposition in rat hippocampus. The test can be described thus: Rat infusion model of β/A4 amyloid deposition in hippocampus. Type of test: in vivo. On the procedure: For infusion studies, all reagents were dissolved and stored at 4° C. the night prior to surgery. β/A4 (residues 1-40; Bachem California Inc., Torrance, Calif.; Lot #ZJ209) was initially dissolved at 10 mg/ml in 35% acetonitrile (stock solution), with the final diluted concentration of acetonitrile less than 3% in animals infused with β/A4 or its vehicle (see below). Perlecan (basement membrane derived HSPG) and heparan sulfate (HS) GAGs were isolated and purified from the mouse Engelbreth-Holm-Swarm (EHS) sarcoma as described (6), and dissolved in sterile saline at 5 mg/ml and 10 mg/ml, respectively. Male Sprague-Dawley rats (250-300 gms; 3 months old; Harlan Sprague Dawley) were implanted with Alzet 2002 minipumps delivering the following solutions directly into hippocampus at a flow rate of 0.5 μl per hour for one week (7); 1) β/A4 (7.5 μl stock) & HSPG (92.5 μl stock), 6 animals; 2) β/A4 (7.5 μl stock) & HS GAGs (92.5 μl stock), 4 animals; 3) β/A4 (7.5 μl stock) & saline (92.5 μl), 6 animals; 4) HSPG only (100 μl), 4 animals; 5) HS GAGs only (100 μl), 4 animals; 6) saline only (100 μl), 4 animals; and 7) 35% acetonitrile (β/A4 vehicle, 7.5 μl) & saline (92.5 μl), 2 animals. High concentrations of these reagents were chosen to maximize possible effects following infusion into brain. The approximate quantity of β/A4 peptide infused into brain by the end of 1 week in each animal having β/A4 (1-40) as part of the infusate was 75 μg, at least 5 times the amount previously reported in rat models employing single acute injections (8, 9). After one week of continuous infusion, rats were sacrificed by overdose with pentobarbital and perfused with 100 ml of saline followed by 150 ml of 4% paraformaldehyde buffered with phosphate (pH 7.4), postfixed for 24 hours and transferred to phosphate buffered saline for paraffin embedding. Once embedded, consecutive 6 μm serial sections were cut and placed on poly-D-lysine coated slides. Two additional animals in the β/A4 only and the β/A4 & HSPG groups were processed for electron microscopy as described (10).
Detection of infused macromolecules was monitored using two polyclonal antibodies against synthetic β/A4 (either against β/A4 1-28 or 1-40) (13), and two monoclonal antibodies recognizing either HS GAGs (HK-249) (14) or the core protein of perlecan (HK-102) (15). Additionally, two polyclonal antibodies recognizing the core protein of perlecan (17) assessed effects of infused macromolecules (16) on endogenous brain HSPGs. Detection of other AD-like markers included Alz-50 antibody immunostaining (18), and silver staining by the modified Bielschowsky method (19). Possible inflammation-associated amyloid protein involvement was monitored by AA amyloid protein immunostaining (20). The presence of other cell types such as astrocytes was detected by immunostaining with a polyclonal antibody to glial fibrillary acidic protein (GFAP) (1:10,000 dilution; Dako), whereas microglia/macrophage infiltration was detected using a rat monoclonal antibody known as ED1 (1:2500 dilution; Serotec). For all immunostaining, negative controls consisted of using Tris-buffered saline (TBS) instead of the primary antibody, and/or preabsorption experiments using the primary antibody in the presence of excess antigen. In order to quantify possible staining and/or immunostaining differences between the various infusion groups, slides were scored blindly by two independent investigators as described (21) (Table 1; see FIG. 35).
7. Rats were anesthetized with pentobarbital (50 mg/kg) and a 27 gauge steel cannula was stereotactically implanted into the hippocampus using bregma as reference point (AP −4.8; ML 3.5; DV 4), and secured to the skull by machine screws and dental acrylic. The cannula was connected via a 15 cm coil of vinyl tubing to a model 2002 osmotic minipump (Alzet Inc.) placed subcutaneously beneath the shoulder blades. […]

T1 sequence (P05067 672-699 limits assumed): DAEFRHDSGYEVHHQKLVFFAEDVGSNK
Chain of fibronectin (P02751 32-2477, species assumed): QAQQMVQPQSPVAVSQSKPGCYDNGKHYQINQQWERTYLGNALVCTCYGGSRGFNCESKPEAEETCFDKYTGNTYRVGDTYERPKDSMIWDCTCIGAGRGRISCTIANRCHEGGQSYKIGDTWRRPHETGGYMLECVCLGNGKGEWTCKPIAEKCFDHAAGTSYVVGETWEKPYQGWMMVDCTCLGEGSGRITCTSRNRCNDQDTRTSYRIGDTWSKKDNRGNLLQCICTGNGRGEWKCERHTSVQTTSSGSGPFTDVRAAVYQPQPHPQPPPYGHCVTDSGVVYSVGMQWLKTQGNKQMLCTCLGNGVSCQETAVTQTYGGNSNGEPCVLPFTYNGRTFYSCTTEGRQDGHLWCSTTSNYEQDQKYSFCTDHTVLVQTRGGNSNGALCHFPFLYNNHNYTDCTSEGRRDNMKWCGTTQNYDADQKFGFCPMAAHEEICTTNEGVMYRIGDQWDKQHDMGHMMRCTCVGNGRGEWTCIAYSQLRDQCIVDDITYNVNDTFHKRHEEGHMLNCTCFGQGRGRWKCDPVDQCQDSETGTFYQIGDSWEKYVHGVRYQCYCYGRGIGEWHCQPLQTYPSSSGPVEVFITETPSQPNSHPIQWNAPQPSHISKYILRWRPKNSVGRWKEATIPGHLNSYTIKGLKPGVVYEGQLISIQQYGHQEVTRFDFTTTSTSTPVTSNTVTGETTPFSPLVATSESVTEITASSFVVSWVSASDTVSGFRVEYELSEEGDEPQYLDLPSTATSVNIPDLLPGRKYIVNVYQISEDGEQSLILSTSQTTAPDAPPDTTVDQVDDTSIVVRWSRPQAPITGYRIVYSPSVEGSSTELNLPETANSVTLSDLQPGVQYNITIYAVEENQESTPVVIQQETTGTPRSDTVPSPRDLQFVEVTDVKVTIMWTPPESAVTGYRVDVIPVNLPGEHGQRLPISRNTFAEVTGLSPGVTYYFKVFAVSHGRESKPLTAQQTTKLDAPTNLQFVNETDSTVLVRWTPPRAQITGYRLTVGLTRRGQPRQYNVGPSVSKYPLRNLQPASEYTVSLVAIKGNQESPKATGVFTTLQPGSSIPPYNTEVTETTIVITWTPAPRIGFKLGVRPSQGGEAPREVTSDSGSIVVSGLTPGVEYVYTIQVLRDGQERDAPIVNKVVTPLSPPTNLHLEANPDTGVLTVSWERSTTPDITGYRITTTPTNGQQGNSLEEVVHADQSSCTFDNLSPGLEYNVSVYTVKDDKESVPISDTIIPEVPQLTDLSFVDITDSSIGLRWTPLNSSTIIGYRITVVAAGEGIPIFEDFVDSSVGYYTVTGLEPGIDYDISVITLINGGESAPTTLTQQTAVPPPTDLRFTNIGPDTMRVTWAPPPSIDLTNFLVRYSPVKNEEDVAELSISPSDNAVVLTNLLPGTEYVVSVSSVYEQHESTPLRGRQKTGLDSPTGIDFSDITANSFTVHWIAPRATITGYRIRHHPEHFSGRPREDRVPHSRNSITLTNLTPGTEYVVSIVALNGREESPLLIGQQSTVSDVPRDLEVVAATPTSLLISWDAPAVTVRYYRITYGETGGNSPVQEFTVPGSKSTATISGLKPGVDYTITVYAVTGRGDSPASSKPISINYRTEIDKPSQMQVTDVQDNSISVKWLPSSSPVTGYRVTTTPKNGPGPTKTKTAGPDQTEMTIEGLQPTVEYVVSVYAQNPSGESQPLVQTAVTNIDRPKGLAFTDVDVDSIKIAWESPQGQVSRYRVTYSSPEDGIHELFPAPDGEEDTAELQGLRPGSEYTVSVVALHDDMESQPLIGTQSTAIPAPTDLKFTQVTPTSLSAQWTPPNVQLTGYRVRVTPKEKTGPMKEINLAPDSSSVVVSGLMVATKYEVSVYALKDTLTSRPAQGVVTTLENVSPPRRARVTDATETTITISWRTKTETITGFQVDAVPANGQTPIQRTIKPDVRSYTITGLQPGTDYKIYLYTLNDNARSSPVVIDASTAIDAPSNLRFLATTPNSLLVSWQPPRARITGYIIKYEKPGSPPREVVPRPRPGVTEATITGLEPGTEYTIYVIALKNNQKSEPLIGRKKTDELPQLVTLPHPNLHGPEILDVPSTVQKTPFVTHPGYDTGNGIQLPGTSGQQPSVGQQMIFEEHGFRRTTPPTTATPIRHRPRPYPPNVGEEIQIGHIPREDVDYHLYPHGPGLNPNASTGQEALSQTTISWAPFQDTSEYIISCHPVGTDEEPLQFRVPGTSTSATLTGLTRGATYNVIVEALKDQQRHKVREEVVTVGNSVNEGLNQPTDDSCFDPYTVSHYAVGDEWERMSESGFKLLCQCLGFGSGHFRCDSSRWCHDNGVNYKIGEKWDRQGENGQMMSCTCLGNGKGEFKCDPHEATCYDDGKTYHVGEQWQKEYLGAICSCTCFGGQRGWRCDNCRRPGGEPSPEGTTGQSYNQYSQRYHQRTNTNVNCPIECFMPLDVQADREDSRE

As for “chondroitin-6-sulfate [reference compound]”, the “inhibition of binding of 125I-labeled HSPGs to the BAP (in words)” value in test [1] is “not”. In test [1] (at all concentrations except 100 uM), the “competition for binding of 125I-labeled HSPG to BAP” value is listed as “unable to compete”.
As to heparin [reference compound], in test [1] (unlabeled competing ligand, BAP (1-28) affinity column, read-out: concentration at 50% inhibition of 125I-HSPG binding to BAP), the IC50 amounted to 10 µM.
On to “heparitinase-digested ^125I-labeled HSPGs: 125I-labeled HSPG digested with a heparitinase/heparinase mixture (core protein)”, for which, in the test with BAP (residues 1-28), the “HSPGs still able to bind to the BAP column in comparison to undigested controls” value came out at 61%.
Regarding “high Mr HSPG of human lung fibroblasts: high Mr HSPG of human lung fibroblasts (Heremans et al. 1990)”, in the test with fibronectin, the Kd was 0.002 µM.
For “synthetic BAP (residues 1-28): peptide corresponding to the extracellular domain of BAP (residues 1-28 of BAP or 597-624 of BAPP), Bachem”, in test [2] (sections pretreated overnight at 4° C. with peptide), the “BAP immunoreactivity at sites of HSPG accumulation after peptide pretreatment” value is “strong positive immunoreactivity”. In addition, in test [2] (sections pretreated with acetic acid or chondroitin ABC lyase), the “change in BAP immunostaining” value is “little to no decrease”. Further, the “change in BAP immunoreactivity” value in test [2] (sections pretreated with nitrous acid or heparitinase/heparinase) was “some loss”.
Take “β/A4 (1-40): synthetic β/A4 residues 1-40; Bachem California Inc.”: in test [3] (1-week infusion groups), the “HSPG core protein immunostaining score versus groups where HSPG was part of the infusate” value is given as “not significantly different”, the “scoring of congo red staining” value is recorded as “significant increase” and the “scoring of thioflavin S fluorescence” value is “significant increase”. In test [3] (1 week continuous infusion into hippocampus), the “animals demonstrating deposition of congophilic amyloid material in brain” value is on record as 4 of 6. In test [3] (1 week, HSPG not part of the infusate), the “animals with (endogenous) HSPG immunostaining” value was “four”.
